Measurements reported in the NIST ThermoML archive (doi:10.1021/je0505265).
± gives the expanded uncertainty stated by the source.

Conditions: Crystal; DTA

Normal melting temperature: 137.7 ± 0.5 °C
SMILES: CC[C@H]1OC(=O)[C@H](C)[C@@H](O[C@H]2C[C@@](C)(OC)[C@@H](O)[C@H](C)O2)[C@H](C)[C@@H](O[C@@H]2O[C@H](C)C[C@H](N(C)C)[C@H]2O)[C@](C)(O)C[C@@H](C)C(=O)[C@H](C)[C@@H](O)[C@]1(C)O.O.O [erythromycin A dihydrate]
